Test results taken from patent US11813264B2, “PAR1 modulation to alter myelination” (Mayo Foundation for Medical Education and Research, priority 2014, dated 2023).
Entries after “also recorded” stand apart in the source; their conditions may differ.

What was measured:
[1] = tested on: Erk1/2 phosphorylation; assay: Klk6-PAR signaling assay, Erk1/2 phosphorylation by Western blot in Oli-neu; assay type: cell-based, mouse
Method: Klk6-PAR signaling assays: To examine the ability of Klk6 to mediate PAR-dependent signaling in oligodendrocytes, Oli-neu oligodendroglia (3.5×10^5 cells/well in six-well plates) were treated with Klk6 (150 nM) for 10 min, followed by protein harvest. Cell lysates were analyzed for phosphorylated or nonphosphorylated Erk1/2 by Western blot. In experiments to determine the role of PARs in Klk6 signaling, Oli-neu were preincubated with the PAR1 antagonist, SCH79797 dihydrochloride (50 nM, Tocris Biosciences, Minneapolis, MN) for 30 minutes prior to Klk6 application.
Western blot: Oli-neu lysates were obtained using a buffer containing 1% NP40, 0.5% deoxycholate, 10% glycerol, and 20 mM Tris base and separated on SDS-polyacrylamide gels prior to transfer. Membranes were blocked with 5% milk in TBS-T and incubated overnight with primary antibodies including rabbit anti-phospho-Erk1/2 (1:1,000, Cell Signaling Technology, Danvers, MA), followed with a species-appropriate horseradish peroxidase-conjugated secondary antibody (1:20,000 GE Healthcare Unlimited, UK). Signal was detected using Chemiluminescence Supersignal Pico (Pierce, Rockford, IL). Western blots were repeated three times from independent cultures, scanned, and quantified by densitometry (BioRad Quantity One 1-D Analysis Software, BioRad, Hercules, CA). Erk1/2 signal was normalized to its nonphosphorylated form. Equal loading was verified by reprobing blots for […] (Novus Biologicals, Littleton, CO).

[2] = target: T1, PAR1 (Mus musculus, UniProt P30558); assay: Oligodendrocyte gene expression after PAR1 inhibitor treatment, real time RT-PCR; assay type: cell-based; set-up: endogenous in cells; host or cells: primary mouse oligodendrocytes (OPCs shaken from P1 cortical mixed glial cultures); conditions: 70 nM for 48 hours
T1 sequence (P30558 22-430): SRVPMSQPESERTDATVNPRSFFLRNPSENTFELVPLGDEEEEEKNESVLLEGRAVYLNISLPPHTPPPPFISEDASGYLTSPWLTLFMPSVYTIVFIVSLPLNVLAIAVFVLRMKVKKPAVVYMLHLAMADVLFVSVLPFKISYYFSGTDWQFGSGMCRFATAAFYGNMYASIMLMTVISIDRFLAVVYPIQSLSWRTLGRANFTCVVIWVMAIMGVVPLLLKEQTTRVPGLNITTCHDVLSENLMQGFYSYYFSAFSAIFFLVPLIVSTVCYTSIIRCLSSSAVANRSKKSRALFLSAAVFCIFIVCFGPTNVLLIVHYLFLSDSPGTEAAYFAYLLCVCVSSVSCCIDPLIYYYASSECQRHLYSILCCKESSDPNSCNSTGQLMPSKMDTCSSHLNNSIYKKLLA

[3] = target: T1, PAR1; assay: Organotypic cerebellar slice culture with PAR1 inhibitor; assay type: cell-based; set-up: endogenous in cells; host or cells: primary mouse oligodendrocytes (OPCs shaken from P1 cortical mixed glial cultures); conditions: 70 nM, 7 days
Method: Pharmacologic inhibition of PAR1 in an organotypic cerebellar slice culture system: Cerebellar slices (350 μm) from postnatal day 8 mouse brain were grown in cell culture for 7 days in the presence or absence of 70 nM SCH79797, a small molecule inhibitor of PAR1. Cerebellar slices were then fixed with 2% paraformaldehyde and stained using immunofluorescence techniques for myelin associated makers, including MBP, a marker of mature oligodendrocytes (CC-1), and for a marker of oligodendrocyte progenitor cells (NG2). The photomicrographs in FIG. 16 show staining for each individual antigen, or for all of the antigens collectively in a single slice, as indicated.

[4] = tested on: oligodendrocyte progenitor cells (OPCs); assay: OPC process outgrowth; assay type: cell-based, mouse
Method: Oligodendrocyte Cultures: Purified cortical oligodendrocyte progenitor cells (OPCs) and differentiated oligodendrocytes were isolated from mixed glial cultures derived from postnatal day 1 mice (McCarthy and de Vellis, J Cell Blot 85:890-902, 1980). Glial cultures were grown in media containing DMEM, 2 mM Glutamax, 1 mM sodium pyruvate, 20 mM HEPES, and 10% heat-inactivated fetal calf serum (Atlanta Biologicals, Lawrenceville, GA). OPCs were isolated from 10 days-in-vitro (DIV) mixed glial cultures by overnight shaking and purified by differential adhesion. OPCs were seeded in defined Neurobasal A media containing 1% N2, 50 U/mL penicillin/streptomycin, 2 mM Glutamax, 1 mM sodium pyruvate, 0.45% glucose, and 50 μM β-mercaptoethanol (Sigma Aldrich, USA). OPCs were seeded at 3×10^4/cm^2 onto tissue culture plastic or 12 mm glass cover slips coated with poly-L-lysine (PLL, 10 μg/mL). After 24 h, cultures were 92-98% immunoreactive (IR) for sulfatide (O4) and by 72 hours at least 80% were also MBP-IR.
PAR agonist-induced changes in oligodendrocyte morphology: To determine the effects of recombinant Klk6, Klk1, thrombin, or PAR1-AP on oligodendroglia, 3 DIV PAR1^+/+, PAR1^−/−, and PAR2^−/− oligodendrocytes, PAR1^+/+ OPCs immediately post purification, or Oli-neu cells were grown on cover slips in the presence of agonists for 24 h. For ATP toxicity assays, oligodendrocytes were incubated with ATP (50 μM, Sigma Aldrich) in the presence of Klk6 or Klk1. Following each treatment, oligodendrocyte and OPC cultures were immunolabeled for O4 to visualize the cell body and processes. Oli-neu processes were visualized by staining the actin cytoskeleton with Cy3-conjugated Phalloidin.
To assess the effects of Klk6 and other PAR1 agonists on oligodendrocyte morphology and process stability, 20× digital micrographs were overlaid with a 780 μm^2 grid and ImageJ software 1.45r (National Institutes of Health) used to record cell number and the number of processes crossing horizontal grid lines (Scarisbrick et al., Brain 125:1283-1296, 2002). Data are expressed as the mean number of O4^+ or Phalloidin^+ processes per DAPI^+ cell (±SEM).
Changes in OPC or oligodendrocyte morphology were quantified from five microscopic fields per cover slip with the mean and SEM calculated across three cover slips per experiment. Each experiment was repeated at least twice using independent cultures. Analysis of oligodendrocyte morphology was performed without knowledge of treatment groups.

[5] = target: T1, PAR1; assay: Neural precursor cell proliferation (BrdU incorporation); assay type: cell-based; set-up: endogenous in cells; conditions: 70, 35, 10 or 1 nM; NPCs from adult SVZ
Method: Effects of pharmacologic inhibition of PAR1 on NPC proliferation in vitro: NPCs were isolated from the SVZ of 8 week-old adult C57BL6/J mice, cultured in suspension, and treated with 70, 35, 10, or 1 nM of SCH79797, a small molecule inhibitor of PAR1.

`CC(C)c1ccc(Cn2ccc3c4c(N)nc(NC5CC5)nc4ccc32)cc1` [SCH79797] was tested, and the “ability of Klk6 to induce MAPK (Erk1/2) signaling in presence of inhibitor” value ([1]; SCH79797 50 nM, preincubated 30 minutes) was “blocked; also recorded: abolished”, the Erk1/2 phosphorylation ([1]; treatment alone, Klk6 10 minutes) was “No significant changes” and the “NogoA RNA” value [2] was “decrease”. The “Olig2 RNA” value [2] was “decrease”, the “expression of MBP RNA” value [2] was “significant increase” and the “expression of PLP RNA” value ([2]; oligodendrocytes 24 hours in culture) was “significant increase”. For the same compound, the “number of mature oligodendrocytes (CC-1)” value [3] was “significant increases”, the “number of progenitor cells positive for NG2” value [3] was “significant increases” and the “abundance of MBP” value ([3]; P8 cerebellar slices) was “significant increases”. The “Klk6-mediated inhibition of process outgrowth in presence of inhibitor” value ([4]; SCH79797 50 nM) was “diminished”, the “attenuation of the ability of Klk6 to reduce OPC process outgrowth” value ([4]; SCH79797 50 nM for 3 hours prior to Klk6) was about 34% and the “OPC process outgrowth relative to vehicle controls” value ([4]; SCH79797 alone) was “no significant effect”. For the same compound, the BrdU incorporation [5] was “greater levels”.
